Measurements published in article PMC4645160, “Targeting kinases with anilinopyrimidines: discovery of N-phenyl-N’-[4-(pyrimidin-4-ylamino)phenyl]urea derivatives as selective inhibitors of class III receptor tyrosine kinase subfamily” (Scientific Reports, 2015).
Values joined by “and” are separate entries in the source; they are usually repeats but may differ in a detail not shown here. Equal values may be shown once.

Tests used:
[1] = test system: BxPC3 cells; experiment: MTT cytotoxicity assay, BxPC3 pancreatic adenocarcinoma cells; type: cell-based, human
Description: (§1) Compounds active against at least one kinase among EGFR and class III RTKs were evaluated for their cytotoxic properties against two different human cancer cell lines, namely non small cells A549 lung cancer cells (sensitive to EGFR inhibitors)[46] and pancreatic BxPC3 adenocarcinoma (sensitive to both PDGFRβ and EGFR inhibitors)[47][48] cells. […] The results, expressed as IC50 values (μM) calculated from the dose-survival curves obtained after 72 h of drug treatment from the MTT test, are reported in Table 1.
(§2) All compounds, except derivative 27, were dissolved in DMSO just before the experiment, and a calculated amount of drug solution was added to the cell growth medium to a final solvent concentration of 0.5%, which had no discernible effect on cell killing. Compound 27 was dissolved in a 0.9% NaCl solution just before the experiment.
(§3) Human lung (A549), breast (MCF-7), pancreas (BxPC3), and colon (LoVo) carcinoma cell lines along with melanoma (A375) were obtained from American Type Culture Collection (ATCC, Rockville, MD). Human non-tumor embryonic kidney HEK293 cells were obtained from European Collection of Cell Cultures (ECACC, Salisbury, UK). Human cervical carcinoma A431cells were kindly provided by Prof. F. Zunino (Division of Experimental Oncology B, Istituto Nazionale dei Tumori, Milan, Italy). Human ovarian cancer 2008 cells were kindly provided by Prof. G. Marverti (Dept. of Biomedical Science of Modena University, Italy). Cell lines were maintained in the logarithmic phase at 37 °C in a 5% carbon dioxide atmosphere using the following culture media containing 10% fetal calf serum (Euroclone, Milan, Italy), antibiotics (50 units ∙ mL^−1 penicillin and 50 μg ∙ mL^−1 streptomycin) and 2 mM l-glutamine: i) RPMI-1640 medium (Euroclone) for MCF-7, A431, BxPC3 and 2008 cells; ii) F-12 HAM’S (Sigma Chemical Co.) for A549 and LoVo cells; iii) D-MEM medium (Euroclone) for HEK293 cells.
(§4) The growth inhibitory effect towards human cell lines was evaluated by means of MTT (tetrazolium salt reduction) assay. Briefly, 3–8 ∙ 10^3 cells/well, dependent upon the growth characteristics of the cell line, were seeded in 96-well microplates in growth medium (100 μL) and then incubated at 37 °C in a 5% carbon dioxide atmosphere. After 24 h, the medium was removed and replaced with a fresh one containing the test compound at the appropriate concentration. Triplicate cultures were established for each treatment. After 72 h, each well was treated with 10 μL of a 5 mg ∙ mL-1 MTT (3-(4,5-dimethylthiazol-2-yl)-2,5-diphenyltetrazolium bromide) saline solution, and after 5 h additional incubation, 100 μL of a sodium dodecylsulfate (SDS) solution in HCl 0.01 M were added. After overnight incubation, the inhibition of cell growth induced by the tested complexes was detected by measuring the absorbance of each well at 570 nm using a Bio-Rad 680 microplate reader (Bio-Rad, Hercules, CA). Mean absorbance for each drug dose was expressed as a percentage of the control untreated well absorbance and plotted vs drug concentration.

[2] = target: T1, EGFR (Homo sapiens, UniProt P00533); experiment: KinomeScan primary screening (POC) at 10 μM, EGFR; type: binding; conditions: POC values
T1 construct: purchased DiscoverX (KinomeScan, ScanEDGE subset)
Description: Synthesized compounds were screened against a panel of 48 kinases selected within the ScanEDGE subset of DiscoverX (http://www.discoverx.com/services/drug-discovery-development-services/kinase-profiling/kinomescan/scanedge). The ScanEDGE includes 97 kinases and is an economical approach to assess compounds selectivity throughout the human kinome. All the wt-TKs along with some relevant mutants of Abl1 (T315I) and of EGFR (L858R and L858R/T790M) were chosen. […]
The compounds were evaluated using the KinomeScan™ platform (http://www.discoverx.com/services/drug-discovery-development-services/kinase-profiling/kinomescan), that measures the ability of the test compound to disrupt the complex between a high affinity ATP-mimic probe immobilized on a solid support and the kinase of interest. […] The POC is calculated as reported in equation (1): […]
(§5) The compounds were tested at high concentration (10 μM), in order to highlight not only the main target but also the off-targets. The results of the preliminary screening are reported as heat map (Fig. 4; see also Table S4 for all the measured values), in which the compounds are grouped on the basis of the 6 or 5 substituent at the pyrimidine ring.

[3] = test system: HEK293 cells; experiment: MTT cytotoxicity assay, non-tumor HEK293 cells; type: cell-based, human
Description: F. Zunino (Division of Experimental Oncology B, Istituto Nazionale dei Tumori, Milan, Italy).
The growth inhibitory effect towards human cell lines was evaluated by means of MTT (tetrazolium salt reduction) assay. […] Triplicate cultures were established for each treatment.

[4] = test system: panel of 48 kinases; experiment: KinomeScan primary screening (POC) at 10 μM; type: binding, human; conditions: POC values
Description: Synthesized compounds were screened against a panel of 48 kinases selected within the ScanEDGE subset of DiscoverX (http://www.discoverx.com/services/drug-discovery-development-services/kinase-profiling/kinomescan/scanedge). The ScanEDGE includes 97 kinases and is an economical approach to assess compounds selectivity throughout the human kinome. All the wt-TKs along with some relevant mutants of Abl1 (T315I) and of EGFR (L858R and L858R/T790M) were chosen. The remaining 18 targets (3 Tyrosine Kinases-Like, TKLs; 15 Serine-Threonine Kinases, STKs) were selected among the remaining kinases in the ScanEDGE subset on the basis of their well established role in cancer (see Fig. S2 for a graphical representation of the selected kinases with reference to the kinome tree. Some references highlighting the role of each kinase in cancer are also reported in Table S3).
The compounds were evaluated using the KinomeScan™ platform (http://www.discoverx.com/services/drug-discovery-development-services/kinase-profiling/kinomescan), that measures the ability of the test compound to disrupt the complex between a high affinity ATP-mimic probe immobilized on a solid support and the kinase of interest. The KinomeScan is a very helpful technology for the fast and reliable screening of a number of compounds against a wide and customizable panel of kinases. Besides, it is not based on the use of hazardous radioactive ^32P-ATP and has a very low rate of false positive (<1%)[44]. The screening platform outputs a “Percent of Control” (POC) value, statistically correlated to the dissociation constant (Kd) value (http://www.discoverx.com/tools-resources/leadhunter-study-reports-data-analysis), for each pair of kinase/ligand. The POC is calculated as reported in equation (1):
Where: test compound signal = amount of kinase still binding the probe after treatment with test compound; negative control signal = amount of kinase still binding the probe after treatment with DMSO (100% control); positive control signal = amount of kinase still binding the probe after treatment with control compound (0% control).
as §5

[5] = test system: A549 cells; experiment: MTT cytotoxicity assay, A549 lung cancer cells; type: cell-based, human
Description: as §1, §2, §3, §4

[6] = test system: Lewis Lung Carcinoma (LLC); experiment: In vivo anticancer activity toward Lewis Lung Carcinoma (LLC); conditions: LLC in C57BL mice, 27 at 7.5 mg/kg, CDDP at 1.5 mg/kg
Description: (§6) Besides, it was as cytotoxic as 19 towards cancer cells while showing a more favorable selectivity index. On these basis, compound 27 was chosen for in vivo experiments against a syngeneic murine solid tumor model, the murine Lewis Lung Carcinoma (LLC). The tumor growth inhibition induced by 27 was compared with that promoted by cisplatin (CDDP), the most common chemotherapeutic drug used in the treatment of lung cancers. Nine days after tumor inoculation, tumor-bearing mice were randomized into vehicle control and treatment groups (8 mice per group). Control mice received the vehicle (0.2%v/v EtOH and 99.8%v/v of a saline solution), whereas treated groups received daily doses of 27 (7.5 mg · kg^−1 in the vehicle solution composed of 0.2%v/v EtOH and 99.8%v/v of saline solution) or CDDP (1.5 mg · kg^−1 in saline solution). Tumor growth was estimated at day 20 (Fig. 7a). As an indication of the adverse side effects, changes in the body weights of tumor-bearing mice were monitored at day 1 and daily from day 9.
Figure 7 In vivo testing of compound 27. Lewis lung carcinoma (LLC) was implanted i.m. (2 · 10^6 cells inoculum) into the right hind leg of 8-week old imbred C57BL mice. Nine days after tumor inoculation (palpable tumor), tumor-bearing mice were randomized into vehicle control and treatment groups (8 mice per group). Compound 27 was dosed daily at 7.5 mg/kg ip and CDDP was dosed daily at 1.5 mg/kg ip. At day 20, animals were sacrificed (i.e., before tumor can cause the animal discomfort), the legs were amputated at the proximal end of the femur, and the inhibition of tumor growth was determined according to the difference in weight of the tumor-bearing leg and the healthy leg of the animals expressed as % referred to the control animals. Control was constituted by vehicle (0.2%v/v EtOH and 99.8%v/v of saline solution). CDDP was used as positive reference. Both 27 and CDDP were administered at the highest not toxic doses (7.5 and 1.5 mg/kg, respectively), as determined by MTD studies. (a) Average tumor weight (g) after 20 days of treatment with control or compounds. (b) Percentage of reduction in tumor growth after 20 days of treatment with respect to control mice. (c) Body weight changes. The body weight changes of LLC bearing C57BL mice treated with vehicle or tested compounds. Each drug was administered daily after 9 days from the tumor cell inoculum. Weights were measured at day 1 and daily from day 9. Error bars indicate the standard deviation.
All studies involving animal testing were carried out in accordance with the ethical guidelines for animal research adopted by the University of Padua, acknowledging the Italian regulation (D.L.G.S. 116/92) and European Directive 86/609/EEC as to the animal welfare and protection and the related codes of practice. […]

[7] = Body weight changes of LLC bearing mice; type: in vivo; conditions: mouse, in vivo, ip, 1.5 mg/kg
Description: as §6, with “Control mice received the vehicle (0.2%v/v EtOH and 99.8%v/v of a saline solution), whereas treated groups received daily doses of 27 (7.5 mg · kg^−1 in the vehicle solution composed of 0.2%v/v EtOH and 99.8%v/v of saline solution) or CDDP (1.5 mg · kg^−1 in saline solution). Tumor growth was estimated at day 20 (Fig. 7a).” left out
Figure 7 In vivo testing of compound 27. […] At day 20, animals were sacrificed (i.e., before tumor can cause the animal discomfort), the legs were amputated at the proximal end of the femur, and the inhibition of tumor growth was determined according to the difference in weight of the tumor-bearing leg and the healthy leg of the animals expressed as % referred to the control animals. […] Both 27 and CDDP were administered at the highest not toxic doses (7.5 and 1.5 mg/kg, respectively), as determined by MTD studies. […] Weights were measured at day 1 and daily from day 9. […]

[8] = MTD studies (highest not toxic dose); type: in vivo; conditions: daily ip

T1 sequence (P00533 25-1210): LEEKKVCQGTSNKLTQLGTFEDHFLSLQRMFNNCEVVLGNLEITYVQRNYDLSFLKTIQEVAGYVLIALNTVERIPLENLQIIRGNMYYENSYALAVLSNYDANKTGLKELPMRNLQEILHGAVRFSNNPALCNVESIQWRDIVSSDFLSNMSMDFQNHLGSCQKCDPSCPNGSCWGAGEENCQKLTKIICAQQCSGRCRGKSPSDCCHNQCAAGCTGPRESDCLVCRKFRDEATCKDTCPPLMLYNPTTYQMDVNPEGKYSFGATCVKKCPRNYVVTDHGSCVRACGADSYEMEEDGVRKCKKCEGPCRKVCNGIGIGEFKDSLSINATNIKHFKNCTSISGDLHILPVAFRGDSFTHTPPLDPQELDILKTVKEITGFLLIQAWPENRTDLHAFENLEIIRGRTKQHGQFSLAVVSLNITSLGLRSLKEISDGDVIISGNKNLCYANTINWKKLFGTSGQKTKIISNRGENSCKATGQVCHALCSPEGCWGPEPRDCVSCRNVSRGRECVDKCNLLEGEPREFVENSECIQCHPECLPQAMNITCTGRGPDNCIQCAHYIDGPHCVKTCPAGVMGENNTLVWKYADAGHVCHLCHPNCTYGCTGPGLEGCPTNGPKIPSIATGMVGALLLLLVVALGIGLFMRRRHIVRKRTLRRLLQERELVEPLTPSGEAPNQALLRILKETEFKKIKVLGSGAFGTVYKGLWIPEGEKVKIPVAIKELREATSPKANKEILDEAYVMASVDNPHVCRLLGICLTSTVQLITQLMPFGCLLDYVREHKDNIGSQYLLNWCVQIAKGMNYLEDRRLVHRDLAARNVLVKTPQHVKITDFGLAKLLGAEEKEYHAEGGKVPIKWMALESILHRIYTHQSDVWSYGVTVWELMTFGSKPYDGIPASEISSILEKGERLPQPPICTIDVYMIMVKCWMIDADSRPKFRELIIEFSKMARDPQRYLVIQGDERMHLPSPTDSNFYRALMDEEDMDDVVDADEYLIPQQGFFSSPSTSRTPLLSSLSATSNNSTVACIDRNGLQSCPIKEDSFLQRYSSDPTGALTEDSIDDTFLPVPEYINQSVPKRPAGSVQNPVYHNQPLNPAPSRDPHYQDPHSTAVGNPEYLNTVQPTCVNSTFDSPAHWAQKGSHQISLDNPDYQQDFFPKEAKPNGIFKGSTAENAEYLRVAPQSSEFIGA

Compound	IC50 ([1]; Homo sapiens, BXPC-3, MTT test, 72 h of drug treatment, read-out: BxPC3 IC50 (μM) ± SD) [µM]	Potency relative to SU (BxPC3) ([1]; ratio between IC50 of sunitinib and IC50 of tested compound, BxPC3)	Activity against EGFR in primary screening [2]	IC50 ([3]; Homo sapiens, HEK293, MTT test, 72 h, non-tumor cells, read-out: HEK293 IC50 (μM) ± SD) [µM]	Selectivity Index ([3]; IC50 toward non cancerous HEK293 cells divided by the average IC50 for the malignant cells (A549, BxPC3))	Selectivity profile (kinases targeted) in primary screening [4]	IC50 ([5]; Homo sapiens, A549, 72 h, MTT test, 72 h of drug treatment, read-out: A549 IC50 (μM) ± SD) [µM]	Potency relative to SU (A549) ([5]; ratio between IC50 of sunitinib and IC50 of tested compound, A549)	Inhibition of tumor growth (%) ([6]; daily ip from day 9, day 20, versus vehicle control)	Average tumor weight (mean±S.D., g) ([6]; daily ip from day 9, day 20) [g]	Body weight loss (in words) [7]	Highest not toxic dose as determined by MTD studies [8] [mg/kg]
O=C(Nc1ccccc1)Nc1ccc(Nc2cc(Nc3ccccc3)ncn2)cc1 [Compound 7]	4.6 ± 0.85	1.10	very poor activity	3.14 ± 0.57	0.64	class III RTK	5.13 ± 0.94	1.21	–	–	–	–
[NH2][Pt]([NH2])([Cl])[Cl] [CDDP, cisplatin, reference compound]	–	–	–	–	–	–	–	–	71.63% and 71.6%	0.139 ± 0.09	elevated body weight loss	1.5
